Results on 21 compounds are retold here after US6372774B1, “Derivatives of N-phenylpyrazoles” (Rhone-Poulenc Agriculture Ltd., priority 1985, dated 2002).

For series [1], the system named is Plutella xylostella (Diamond-back Moth). As to the kind of experiment: whole plant or invertebrate. It is filed as in vivo. Conditions: foliar; for mortality at 500 ppm: read-out: mortality of larvae of Plutella xylostella. An excerpt:
(§1) One or more dilutions of the compounds to be tested were made in 50% aqueous acetone.
(§2) a) Test species: Plutella xylostella (Diamond-back Moth) and Phaedon cochleariae (Mustard Beetle)
(§3) Turnip leaf discs were set in agar in petri-dishes and infected with 10 larvae (2nd instar Plutella or 3rd instar Phaedon). Four replicate dishes were assigned to each treatment and were sprayed under a Potter Tower with the appropriate test dilution. Four or five days after treatment the dishes were removed from the constant temperature (25° C.) room in which they had been held and the mean percentage mortalities of larvae were determined.

Series [2] deals with Phaedon cochleariae (Mustard Beetle). Kind of series: Test 3 a): leaf disc spray test, Phaedon cochleariae larvae. It is filed as in vivo. Conditions: Phaedon cochleariae, foliar; for pest or weed control at 10 ppm: read-out: Phaedon % m 10 ppm; for mortality at 5 ppm: read-out: mortality of larvae of Phaedon cochleariae.
Description: as §1, §2, §3

Series [3] deals with Megoura viciae (Vetch Aphid). Kind of series: Test 3 b): spray of infested tic bean plants, Megoura viciae. The format is in vivo. Conditions: for mortality at 50 ppm: Megoura viciae, read-out: mortality of Megoura viciae; for score from 4 replicates, Megoura viciae: Test 3 method (b), application of 50 ppm, score 0-3 per replicate, maximum 12; for Megoura score/12 50 ppm: Tables 1 and 3, sum of scores 0-3 of 4 replicates. Here is the method:
as §1
b) Megoura viciae (Vetch Aphid)
Potted tic bean plants previously infected with mixed stages of Megoura were sprayed to run-off using a laboratory turntable sprayer. Treated plants were held in a greenhouse for 2 days and were assessed for aphid mortality using a scoring system, judging the response in comparison with plants treated with 50% aqueous acetone alone, as controls.

Broadly, the melting point is the temperature of the solid-liquid transition. As for `N#Cc1nn(-c2c(F)c(F)c(C(F)(F)F)c(F)c2F)c(N)c1C#N` [Compound 126, 5-Amino-3,4-dicyano-1-(2,3,5,6-tetrafluoro-4-trifluoromethylphenyl)pyrazole], the melting point was in the range of 262 to 263 °C.

In turn, `CC(=O)Nc1c([N+](=O)[O-])c(C(F)(F)F)nn1-c1c(Cl)cc(C(F)(F)F)cc1Cl` [Compound 192, 5-Acetamido-1-(2,6-dichloro-4-trifluoromethylphenyl)-4-nitro-3-trifluoromethylpyrazole] had a melting point of 194 to 195 °C.

For `CCS(=O)(=O)c1c(C)nn(-c2c(Cl)cc(C(F)(F)F)cc2Cl)c1N` [Compound 222, 5-Amino-1-(2,6-dichloro-4-trifluoromethylphenyl)-4-ethylsulphonyl-3-methylpyrazole], the melting point is 193 °C.

On to `N#Cc1c(C(F)(F)F)nn(-c2c(Cl)c(F)c(C(F)(F)F)c(F)c2Cl)c1N` [Compound 167, 5-Amino-4-cyano-1-(2,6-dichloro-3,5-difluoro-4-trifluoromethylphenyl)-3-trifluoromethylpyrazole], for which the melting point is 176 to 177 °C.

On to `Cc1nn(-c2c(Cl)cc(C(F)(F)F)cc2Cl)c(N2C(=O)CCC2=O)c1C#N` [Compound 169, 4-Cyano-1-(2,6-dichloro-4-trifluoromethylphenyl)-3-methyl-5-succinimidopyrazole], for which the melting point is 202 to 204 °C.

In the case of `CC[S+]([O-])c1c(C)nn(-c2c(Cl)cc(C(F)(F)F)cc2Cl)c1N` (stereo not shown) [Compound 218, 5-Amino-1-(2,6-dichloro-4-trifluoromethylphenyl)-4-ethylsulphinyl-3-methylpyrazole], the melting point lay within 157 to 158 °C.

In general, mortality refers to the share of the test organisms that died. In the case of `N#Cc1c(C(F)F)nn(-c2c(Cl)cc(C(F)(F)F)cc2Cl)c1N` [Compound 129, 5-Amino-1-(2,6-dichloro-4-trifluoromethylphenyl)-4-cyano-3-difluoromethylpyrazole], in series [1], the mortality at 500 ppm was determined as 100%. Further, the pest or weed control at 10 ppm in series [2] was determined as 100%. For the same compound, in series [3], the mortality at 50 ppm was 100% and the “score from 4 replicates, Megoura viciae” value was determined as 12.

`N#Cc1nn(-c2c(Cl)cc(OC(F)(F)F)cc2Cl)c(N)c1C#N` [Compound 159, 5-Amino-1-(2,6-dichloro-4-trifluoromethoxyphenyl)-3,4-dicyanopyrazole]: the melting point is 231 to 232 °C.

On to `N#Cc1c(Cl)nn(-c2c(Cl)cc(C(F)(F)F)cc2Cl)c1N` [Compound 114, 5-Amino-3-chloro-4-cyano-1-(2,6-dichloro-4-trifluoromethylphenyl)pyrazole], for which, in series [1], the mortality at 500 ppm amounted to 100%. The pest or weed control at 10 ppm in series [2] is 100%. Also, the “Megoura score/12 50 ppm” value in series [3] is given as 9.

`CCSc1c(C(F)(F)F)nn(-c2c(Cl)cc(C(F)(F)F)cc2Cl)c1N` [Compound 228, 5-Amino-1-(2,6-dichloro-4-trifluoromethylphenyl)-4-ethylthio-3-trifluoromethylpyrazole]: in series [1], the mortality at 500 ppm came to 100%. In series [2], the mortality at 5 ppm stood at 100%. Further, in series [3], the mortality at 50 ppm was found to be 100% and the “score from 4 replicates, Megoura viciae” value is reported as 12.

Take `N#Cc1c(Br)nn(-c2c(Cl)cc(C(F)(F)F)cc2Cl)c1N` [Compound 115, 5-Amino-3-bromo-4-cyano-1-(2,6-dichloro-4-trifluoromethylphenyl)pyrazole]: the mortality at 500 ppm in series [1] came out at 100%. In addition, in series [2], the pest or weed control at 10 ppm came out at 100%. Besides, in series [3], the “Megoura score/12 50 ppm” value is 10.

Take `N#Cc1c(C(F)(F)F)nn(-c2c(Cl)cc(OC(F)(F)F)cc2Cl)c1N` [Compound 144, 5-Amino-4-cyano-1-(2,6-dichloro-4-trifluoromethoxyphenyl)-3-trifluoromethylpyrazole]: the mortality at 500 ppm in series [1] was found to be 100%. Further, the mortality at 5 ppm in series [2] was found to be 100%. Further, in series [3], the mortality at 50 ppm is 100% and the “score from 4 replicates, Megoura viciae” value was found to be 12.

As to `COC=Nc1c(C#N)c(C)nn1-c1c(Cl)cc(C(F)(F)F)cc1Cl` [Compound 118, 4-Cyano-1-(2,6-dichloro-4-trifluoromethylphenyl)-3-methyl-5-methoxymethyleneaminopyrazole], the pest or weed control at 500 ppm in series [1] (read-out: Plutella % m 500 ppm) worked out at 73%. Further, the pest or weed control at 10 ppm in series [2] came out at 45%. The “Megoura score/12 50 ppm” value in series [3] is recorded as 10.

With `N#Cc1c(C(F)(F)F)nn(-c2c(Cl)cc(C(F)(F)F)cc2Cl)c1I` [Compound 151, 4-Cyano-1-(2,6-dichloro-4-trifluoromethylphenyl)-5-iodo-3-trifluoromethylpyrazole], the mortality at 500 ppm in series [1] was found to be 100%. Further, the pest or weed control at 10 ppm in series [2] came to 100%. Further, in series [3], the “Megoura score/12 50 ppm” value is given as 11.

For the compound `N#Cc1cn(-c2c(Cl)cc(C(F)(F)F)cc2Cl)nc1C(F)(F)F` [Compound 150, 4-Cyano-1-(2,6-dichloro-4-trifluoromethylphenyl)-3-trifluoromethylpyrazole], the mortality at 500 ppm in series [1] was 100%. Also, in series [2], the pest or weed control at 10 ppm came to 100%. In series [3], the “Megoura score/12 50 ppm” value stood at 10.

`N#Cc1c(C(F)(F)F)nn(-c2c(Cl)cc(SC(F)(F)F)cc2Cl)c1N` [Compound 165, 5-Amino-4-cyano-1-(2,6-dichloro-4-trifluoromethylthiophenyl)-3-trifluoromethylpyrazole]: in series [2], the mortality at 5 ppm is 100%. Also, in series [3], the mortality at 50 ppm worked out at 100% and the “score from 4 replicates, Megoura viciae” value was 12.

For the compound `N#Cc1c(C(F)(F)F)nn(-c2c(Cl)cc([S+]([O-])C(F)(F)F)cc2Cl)c1N` (stereo not shown) [Compound 219, 5-Amino-4-cyano-1-(2,6-dichloro-4-trifluoromethylsulphinylphenyl)-3-trifluoromethylpyrazole], the mortality at 500 ppm in series [1] worked out at 100%. The mortality at 5 ppm in series [2] was 100%. In series [3], the mortality at 50 ppm amounted to 100% and the “score from 4 replicates, Megoura viciae” value was 12.

As for `CS(=O)(=O)c1c(C#N)nn(-c2c(Cl)cc(C(F)(F)F)cc2Cl)c1N` [Compound 214, 5-Amino-3-cyano-1-(2,6-dichloro-4-trifluoromethylphenyl)-4-methanesulphonylpyrazole], in series [1], the mortality at 500 ppm amounted to 100%. Besides, the mortality at 5 ppm in series [2] is 100%. Besides, in series [3], the mortality at 50 ppm is 100% and the “score from 4 replicates, Megoura viciae” value was determined as 12.

Regarding `CC(C)(C)[Si](C)(C)c1c(C#N)c(C(F)(F)F)nn1-c1c(Cl)cc(C(F)(F)F)cc1Cl` [Compound 206, 5-tert.-Butyldimethylsilyl-4-cyano-1-(2,6-dichloro-4-trifluoromethylphenyl)-3-trifluoromethylpyrazole], the mortality at 5 ppm in series [2] was determined as 100%. Besides, in series [3], the mortality at 50 ppm turned out to be 100% and the “score from 4 replicates, Megoura viciae” value is reported as 12.

With `N#Cc1c(C(F)(F)C(F)(F)F)nn(-c2c(Cl)cc(C(F)(F)F)cc2Cl)c1N` [Compound 127, 5-Amino-4-cyano-1-(2,6-dichloro-4-trifluoromethylphenyl)-3-pentafluoroethylpyrazole], in series [1] (read-out: Plutella % mortality at 100 ppm), the mortality at 100 ppm stood at 100%. The pest or weed control at 10 ppm in series [2] amounted to 100%. In series [3], the “Megoura score/12 50 ppm” value came to 10.

For the compound `C[Si](C)(C)c1c([N+](=O)[O-])c(C(F)(F)F)nn1-c1c(Cl)cc(C(F)(F)F)cc1Cl` [Compound 210, 1-(2,6-Dichloro-4-trifluoromethylphenyl)-4-nitro-3-trifluoromethyl-5-trimethylsilylpyrazole], the mortality at 500 ppm in series [1] worked out at 100%. In series [2], the mortality at 5 ppm was 100%. Further, in series [3], the mortality at 50 ppm stood at 100% and the “score from 4 replicates, Megoura viciae” value amounted to 12.
